One assay addresses T1, JARID1B (Homo sapiens, UniProt Q9UGL1).
T1 construct: The FLAG tagged full length JARID1B enzyme was expressed in Sf21 insect cells using FLAG-JARID1B baculoviruses; FLAG (N); made in house; host or cells: Sf21 insect cells (baculovirus)
Briefly: FLAG-JARID1B histone demethylase assay with AlphaScreen detection (HTS and dose response).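 On Assay Signal (percent): compound tested at 20 µM.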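 On Assay − Artifact Signal (percent): compound tested at 20 µM.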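 On all read-outs here: FLAG-tagged JARID1B at 4 nM acting on a biotinylated H3K4me3 peptide, demethylation read by AlphaScreen luminescence, with hits checked against bio-H3K4me2 without enzyme.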 It is filed as biochemical. Particulars: for Assay − Artifact Signal (percent): assay signal minus artifact signal; for Assay Signal (percent): validation of HTS actives, effect of compound in JARID1B AlphaScreen assay.

The target in the next assay is T2, JARID1A (Homo sapiens, UniProt P29375).
T2 construct: the high-throughput screen of the invention utilizes full length JARID1A or JARID1B; FLAG (N); made in house; host or cells: Sf21 insect cells (baculovirus)
T2 sequence (P29375 whole entry): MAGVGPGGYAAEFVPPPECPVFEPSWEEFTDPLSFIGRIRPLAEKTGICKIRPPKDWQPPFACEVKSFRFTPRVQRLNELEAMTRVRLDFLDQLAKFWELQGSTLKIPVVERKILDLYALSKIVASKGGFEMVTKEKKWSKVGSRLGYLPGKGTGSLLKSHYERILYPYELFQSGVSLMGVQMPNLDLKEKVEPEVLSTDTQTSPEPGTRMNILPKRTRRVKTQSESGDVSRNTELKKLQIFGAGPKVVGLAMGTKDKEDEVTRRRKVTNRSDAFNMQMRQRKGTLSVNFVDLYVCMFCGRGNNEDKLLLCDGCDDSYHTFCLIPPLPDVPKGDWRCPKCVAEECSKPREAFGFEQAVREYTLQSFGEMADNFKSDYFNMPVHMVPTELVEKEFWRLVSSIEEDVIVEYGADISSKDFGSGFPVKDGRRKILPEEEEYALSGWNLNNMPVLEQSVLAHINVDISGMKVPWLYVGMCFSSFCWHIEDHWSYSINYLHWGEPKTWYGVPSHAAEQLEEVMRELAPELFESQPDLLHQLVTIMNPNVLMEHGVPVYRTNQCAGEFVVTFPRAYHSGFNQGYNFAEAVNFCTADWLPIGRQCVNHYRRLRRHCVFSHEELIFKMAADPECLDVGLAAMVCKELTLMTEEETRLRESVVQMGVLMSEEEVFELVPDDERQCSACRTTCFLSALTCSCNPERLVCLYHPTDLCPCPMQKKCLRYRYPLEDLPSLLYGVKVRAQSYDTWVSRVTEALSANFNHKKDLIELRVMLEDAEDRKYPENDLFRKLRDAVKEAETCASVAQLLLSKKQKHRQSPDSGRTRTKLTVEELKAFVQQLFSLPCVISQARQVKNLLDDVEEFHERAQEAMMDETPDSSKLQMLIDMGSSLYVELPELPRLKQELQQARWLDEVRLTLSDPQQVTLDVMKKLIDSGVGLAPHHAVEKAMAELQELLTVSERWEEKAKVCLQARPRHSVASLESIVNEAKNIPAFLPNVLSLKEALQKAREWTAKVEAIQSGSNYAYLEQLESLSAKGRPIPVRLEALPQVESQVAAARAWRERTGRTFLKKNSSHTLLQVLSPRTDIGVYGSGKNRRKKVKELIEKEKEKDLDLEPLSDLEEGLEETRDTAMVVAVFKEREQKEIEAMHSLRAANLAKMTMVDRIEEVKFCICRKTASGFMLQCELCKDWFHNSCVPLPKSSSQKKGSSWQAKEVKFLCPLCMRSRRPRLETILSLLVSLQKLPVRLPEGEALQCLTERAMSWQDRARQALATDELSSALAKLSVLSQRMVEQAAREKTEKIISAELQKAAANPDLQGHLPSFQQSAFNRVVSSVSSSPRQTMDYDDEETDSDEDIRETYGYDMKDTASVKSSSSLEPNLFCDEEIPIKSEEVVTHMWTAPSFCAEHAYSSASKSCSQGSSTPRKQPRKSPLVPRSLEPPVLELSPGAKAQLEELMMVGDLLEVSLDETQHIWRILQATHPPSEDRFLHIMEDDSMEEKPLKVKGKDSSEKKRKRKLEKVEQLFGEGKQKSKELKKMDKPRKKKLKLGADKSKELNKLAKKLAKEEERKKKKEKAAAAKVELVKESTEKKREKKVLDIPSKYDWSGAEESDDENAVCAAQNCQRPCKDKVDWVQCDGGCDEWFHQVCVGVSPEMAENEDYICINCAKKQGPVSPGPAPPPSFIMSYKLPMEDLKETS
Briefly: FLAG-JARID1A histone demethylase assay with AlphaScreen detection (HTS and dose response). The assay is classed as biochemical. Particulars: for pIC50: dose response, 50 μM Fe (II), read-out: IC50 against JARID1A. As for the experimental part:
(§1) Histone demethylase assays were performed in 384 well white plates (Corning 3574). Demethylase buffer conditions for FLAG-JARID1B were as follows: 10 μM α-KG, 100 μM ascorbate, 50 μM (NH4)2Fe(SO4)2, 50 mM Hepes (pH 7.5), 0.01% (v/v) Tween 20, and 0.1% (w/v) bovine serum albumin. The demethylase reactions included 64 nM bio-H3K4me3 peptide alone or in the presence of 4 nM FLAG-JARID1B enzyme in a 10 μl reaction at 25° C. for 30 minutes. As a positive control, 64 nM bio-H3K4me2 peptide was assayed in the absence of enzyme. Assay conditions for FLAG-JARID1C is the same as for FLAG-JARID1B except that 20 nM enzyme was used. For FLAG-JARID1A, the demethylase buffer was similar to FLAG-JARID1B, except that 125 μM α-KG and 13 nM FLAG-JARID1A enzyme were used. The His-FLAG-UTX and FLAG-JMJD3 demethylase assays also employed the same buffer conditions as for FLAG-JARID1B, with 64 nM bio-H3K27me3 peptide assayed with or without 25 nM His-FLAG-UTX enzyme or 50 nM FLAG-JMJD3 (BPS Bioscience, 50115), and 64 nM bio-H3K27me2 peptide as a positive control. JARID1A, JARID1C, UTX, and JMJD3 histone demethylase assays proceeded at 37° C. for 1 hour.
(§2) The AlphaScreen General IgG (Protein A) detection kit was obtained from PerkinElmer. Demethylated H3K4 products were detected using AlphaScreen antibody/bead mix containing 7.5 mM ethylenediaminetetraacetic acid (EDTA) and 0.15 μg/ml anti-H3K4me1 antibody in a final volume of 20 μl. For detection of demethylated H3K27 products, the AlphaScreen antibody/bead mix containing 7.5 mM EDTA and 0.15 μg/ml anti-H3K27me2 antibody in a final volume of 20 μl. The luminescence signal was measured using the Envision (PerkinElmer) or Pherastar (BMG Labtech) Platereaders.
FLAG-JARID1A was screened against 9,600 compounds. These compound libraries were from the Yale Center for Molecular Discovery. The libraries screened include the MicroSource Gen-Plus, MicroSource Pure Natural Products, NIH Clinical Collection, Enzo Epigenetics, and ChemBridge MW-Set libraries. Compounds dissolved in dimethyl sulfoxide (DMSO) were pintooled into a 384 well plate containing bio-H3K4me3 peptide in demethylase buffer to a final concentration of 20 μM. The reactions were initiated by the addition of 13 nM FLAG-JARID1A, and detected as described above. To eliminate the false positive hits, a counterscreen was performed against bio-H3K4me2 in the absence of enzyme.
(Bead proximity is the source of the signal in Alpha formats.)

The next assay has as its target T3, JARID1C (Homo sapiens, UniProt P41229).
T3 construct: FLAG (N); made in house; host or cells: Sf21 insect cells (baculovirus)
Briefly: FLAG-JARID1C histone demethylase assay with AlphaScreen detection. The assay is classed as biochemical. Particulars: compound 10 μM, 64 nM bio-H3K4me3 peptide. As for the experimental part:
as §1, §2

For the next assay, the target named is T4, UTX (Homo sapiens, UniProt O15550).
T4 construct: His (N); FLAG (N); made in house; host or cells: Sf21 insect cells (baculovirus)
T4 sequence (O15550 whole entry): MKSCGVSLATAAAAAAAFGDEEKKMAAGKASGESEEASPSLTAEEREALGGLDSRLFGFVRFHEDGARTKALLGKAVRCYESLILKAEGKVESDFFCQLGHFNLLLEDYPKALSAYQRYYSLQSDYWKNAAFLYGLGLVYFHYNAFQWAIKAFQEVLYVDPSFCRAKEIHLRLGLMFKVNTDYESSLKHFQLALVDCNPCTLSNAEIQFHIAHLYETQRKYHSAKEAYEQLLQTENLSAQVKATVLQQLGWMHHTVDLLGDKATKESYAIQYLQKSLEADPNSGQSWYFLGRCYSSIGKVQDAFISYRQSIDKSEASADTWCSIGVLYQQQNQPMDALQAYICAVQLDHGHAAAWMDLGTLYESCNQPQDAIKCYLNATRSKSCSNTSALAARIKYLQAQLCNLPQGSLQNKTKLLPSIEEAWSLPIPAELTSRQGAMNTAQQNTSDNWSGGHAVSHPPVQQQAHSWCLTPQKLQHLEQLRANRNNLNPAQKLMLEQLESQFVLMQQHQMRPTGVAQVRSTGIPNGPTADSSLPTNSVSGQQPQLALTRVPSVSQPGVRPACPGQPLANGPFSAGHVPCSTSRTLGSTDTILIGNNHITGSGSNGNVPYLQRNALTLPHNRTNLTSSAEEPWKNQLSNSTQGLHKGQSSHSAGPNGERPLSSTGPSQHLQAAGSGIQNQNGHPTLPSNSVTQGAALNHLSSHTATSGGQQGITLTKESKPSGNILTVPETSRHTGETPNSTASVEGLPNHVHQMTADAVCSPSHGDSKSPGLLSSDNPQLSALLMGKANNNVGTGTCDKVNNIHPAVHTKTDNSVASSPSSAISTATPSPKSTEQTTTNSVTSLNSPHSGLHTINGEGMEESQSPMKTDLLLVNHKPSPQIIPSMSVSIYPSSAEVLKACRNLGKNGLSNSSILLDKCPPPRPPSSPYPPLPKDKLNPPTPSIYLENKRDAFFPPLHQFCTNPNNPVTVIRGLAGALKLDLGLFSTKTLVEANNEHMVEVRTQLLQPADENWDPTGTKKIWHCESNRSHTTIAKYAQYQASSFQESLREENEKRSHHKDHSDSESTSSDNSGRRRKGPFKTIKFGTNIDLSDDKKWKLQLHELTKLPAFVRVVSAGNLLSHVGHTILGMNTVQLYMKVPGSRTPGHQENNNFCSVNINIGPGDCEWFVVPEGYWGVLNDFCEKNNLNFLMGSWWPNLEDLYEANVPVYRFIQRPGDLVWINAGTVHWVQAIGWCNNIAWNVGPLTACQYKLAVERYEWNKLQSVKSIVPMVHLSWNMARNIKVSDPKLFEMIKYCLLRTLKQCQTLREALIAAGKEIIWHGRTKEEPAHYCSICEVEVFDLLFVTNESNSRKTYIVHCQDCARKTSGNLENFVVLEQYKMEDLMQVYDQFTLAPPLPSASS
Put plainly: His-FLAG-UTX H3K27me3 demethylase assay with AlphaScreen detection. The assay is classed as biochemical. Particulars: compound 10 μM, 64 nM bio-H3K27me3 peptide. How it is done: as §1, with “The His-FLAG-UTX and FLAG-JMJD3 demethylase assays also employed the same buffer conditions as for FLAG-JARID1B, with 64 nM bio-H3K27me3 peptide assayed with or without 25 nM His-FLAG-UTX enzyme or 50 nM FLAG-JMJD3 (BPS Bioscience, 50115), and 64 nM bio-H3K27me2 peptide as a positive control. JARID1A, JARID1C, UTX, and JMJD3 histone demethylase assays proceeded at 37° C. for 1 hour.” left out
The AlphaScreen General IgG (Protein A) detection kit was obtained from PerkinElmer. Demethylated H3K4 products were detected using AlphaScreen antibody/bead mix containing 7.5 mM ethylenediaminetetraacetic acid (EDTA) and 0.15 μg/ml anti-H3K4me1 antibody in a final volume of 20 μl. […] The luminescence signal was measured using the Envision (PerkinElmer) or Pherastar (BMG Labtech) Platereaders.

The nature of assay [1]: AlphaScreen counterscreen against bio-H3K4me2 peptide in the absence of enzyme (artifact signal).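 Further: counterscreen run without enzyme against bio-H3K4me2 peptide to remove false positive hits from the JARID1 demethylase AlphaScreen screen.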 Particulars: effect of the compound when incubated with bio-H3K4me2 peptide (counterscreen, no enzyme).
Where [2] appears, read: compound 10 μM, 64 nM bio-H3K4me3 peptide.

pIC50: −log10 of the molar value. Values joined by “and” are separate entries in the source; they are usually repeats but may differ in a detail not shown here. Equal entries are not always repeated. Bounds are passed on as bounds.

T1 sequence (Q9UGL1 whole entry): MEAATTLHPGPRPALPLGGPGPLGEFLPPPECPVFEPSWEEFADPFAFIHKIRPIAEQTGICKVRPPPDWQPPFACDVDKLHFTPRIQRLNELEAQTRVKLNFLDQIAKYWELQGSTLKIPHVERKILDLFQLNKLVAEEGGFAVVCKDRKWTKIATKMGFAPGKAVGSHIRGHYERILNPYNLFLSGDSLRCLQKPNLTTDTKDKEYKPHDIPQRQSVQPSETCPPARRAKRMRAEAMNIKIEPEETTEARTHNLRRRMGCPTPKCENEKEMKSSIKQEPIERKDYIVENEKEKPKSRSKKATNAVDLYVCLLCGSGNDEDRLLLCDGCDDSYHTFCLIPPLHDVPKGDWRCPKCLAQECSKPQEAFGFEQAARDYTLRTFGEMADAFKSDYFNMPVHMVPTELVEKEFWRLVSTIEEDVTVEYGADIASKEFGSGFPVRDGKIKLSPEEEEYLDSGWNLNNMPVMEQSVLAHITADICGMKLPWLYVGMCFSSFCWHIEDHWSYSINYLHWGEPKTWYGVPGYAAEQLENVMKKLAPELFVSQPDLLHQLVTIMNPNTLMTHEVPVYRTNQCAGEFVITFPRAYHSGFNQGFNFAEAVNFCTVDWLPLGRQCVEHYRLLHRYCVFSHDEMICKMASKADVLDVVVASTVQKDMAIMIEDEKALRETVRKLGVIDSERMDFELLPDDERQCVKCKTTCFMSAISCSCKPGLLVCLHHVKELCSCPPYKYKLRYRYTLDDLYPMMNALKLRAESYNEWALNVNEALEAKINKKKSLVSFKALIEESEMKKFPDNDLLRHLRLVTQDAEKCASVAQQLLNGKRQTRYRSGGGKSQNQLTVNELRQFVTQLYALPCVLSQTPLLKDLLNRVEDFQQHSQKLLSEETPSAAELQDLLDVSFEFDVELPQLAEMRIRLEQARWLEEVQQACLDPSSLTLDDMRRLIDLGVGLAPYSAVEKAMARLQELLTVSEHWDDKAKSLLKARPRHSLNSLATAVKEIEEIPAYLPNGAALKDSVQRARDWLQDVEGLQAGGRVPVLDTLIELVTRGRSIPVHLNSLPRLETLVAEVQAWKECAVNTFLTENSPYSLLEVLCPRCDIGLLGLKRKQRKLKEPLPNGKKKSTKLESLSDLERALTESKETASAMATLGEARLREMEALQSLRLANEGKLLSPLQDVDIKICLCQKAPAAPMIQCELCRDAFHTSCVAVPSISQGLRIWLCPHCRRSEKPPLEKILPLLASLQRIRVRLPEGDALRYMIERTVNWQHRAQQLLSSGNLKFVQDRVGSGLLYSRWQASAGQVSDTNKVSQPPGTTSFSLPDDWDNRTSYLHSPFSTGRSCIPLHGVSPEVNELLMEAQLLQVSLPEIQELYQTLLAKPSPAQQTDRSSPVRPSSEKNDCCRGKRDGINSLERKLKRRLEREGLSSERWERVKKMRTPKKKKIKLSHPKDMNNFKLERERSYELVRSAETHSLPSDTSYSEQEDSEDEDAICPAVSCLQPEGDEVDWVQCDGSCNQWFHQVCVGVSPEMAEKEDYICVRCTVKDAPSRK

For the molecule `O=C(O)c1ccnc(C(=O)O)c1` [2,4-PDCA, 2,4-pyridinedicarboxylic acid monohydrate, reference compound], on JARID1B (setting [2]), the JARID1B demethylase activity entry was “inhibited”. Besides, on JARID1A (setting [2]), the JARID1A demethylase activity entry was “inhibited”. For the same molecule, the pIC50 (commonly the IC50 on a negative log10 scale, so that one unit is a factor of ten) on JARID1A is 5.39 and ~5.40. Further, the JARID1C demethylase activity entry on JARID1C is given as “inhibited”. For the same molecule, the UTX demethylase activity result on UTX is given as “did not inhibit”.
For the molecule `Sc1ncnc2nc[nH]c12` [Mercaptopurine], on JARID1A, the pIC50 was roughly 6.00.
In the case of `C[C@](N)(Cc1ccc(O)c(O)c1)C(=O)O` [Methyldopa], on JARID1A, the pIC50 was less than 6.00.
As to `COc1ccc(OC)c(Nc2nc(=O)c3cccnc3s2)c1` [YU151897], on JARID1B, the “Assay − Artifact Signal (percent)” value stood at 42.55% and the “Assay Signal (percent)” value is reported as 40.43%. In addition, the inhibition at 20 µM on JARID1B (high-throughput screen, compound 20 μM, standard demethylase conditions (10 μM α-KG, 50 μM Fe (II)), read-out: Inhibitory effect (percent)) came to 47.6%. For the same molecule, the pIC50 at JARID1A is no less than 5.52. Further, the “Artifact Signal (percent)” value in assay [1] is on record as −2.12%.
“CARMINIC ACID [YU155214, reference compound]”: at JARID1B, the “Assay − Artifact Signal (percent)” value is reported as 54.26% and the “Assay Signal (percent)” value is listed as 78.58%. Moreover, the “Inhibitory effect (percent)” value on JARID1B (high-throughput screen, compound 20 μM, standard demethylase conditions (10 μM α-KG, 50 μM Fe (II))) came to 65.23%. Also, the “Artifact Signal (percent)” value in assay [1] was 24.32%.

The record behind these values is patent publication US20150272939A1, “Identification of Small Molecule Inhibitors of Jumonji AT-Rich Interactive Domain 1A (JARID1A) and 1B (JARID1B) Histone Demethylase” (Yale University, priority 2012, published 2015).
